Data as given in patent US7560473B2 (Institute of Pharmacology and Toxicology Academy of …, priority 2001, dated 2009).

Experiments:
[1] = biological target: T1, ATP-sensitive potassium channels in vascular smooth muscles (Rattus norvegicus, UniProt Q63563); test: Association kinetics of [^3H]P1075 binding in aortic rings; parameters: species or system Wistar rat; conditions: 37° C.; drug M: Compound 1 10^−4, Glibencamide 10^−5, ATP 10^−2, ADP 10^−3, UDP 5 × 10^−5, GTP 10^−3, Ade 10^−3; control 4.36 ± 0.45; means ± SD, n = 4~10
T1 construct: The aorta was cut into about 3-5 mm arterial rings and the vascular endothelium was scraped off; from tissue; host or cells: endothelium-removed aortic rings of male Wistar rats
T1 sequence (Q63563 1-1545 isoform Q63563-2): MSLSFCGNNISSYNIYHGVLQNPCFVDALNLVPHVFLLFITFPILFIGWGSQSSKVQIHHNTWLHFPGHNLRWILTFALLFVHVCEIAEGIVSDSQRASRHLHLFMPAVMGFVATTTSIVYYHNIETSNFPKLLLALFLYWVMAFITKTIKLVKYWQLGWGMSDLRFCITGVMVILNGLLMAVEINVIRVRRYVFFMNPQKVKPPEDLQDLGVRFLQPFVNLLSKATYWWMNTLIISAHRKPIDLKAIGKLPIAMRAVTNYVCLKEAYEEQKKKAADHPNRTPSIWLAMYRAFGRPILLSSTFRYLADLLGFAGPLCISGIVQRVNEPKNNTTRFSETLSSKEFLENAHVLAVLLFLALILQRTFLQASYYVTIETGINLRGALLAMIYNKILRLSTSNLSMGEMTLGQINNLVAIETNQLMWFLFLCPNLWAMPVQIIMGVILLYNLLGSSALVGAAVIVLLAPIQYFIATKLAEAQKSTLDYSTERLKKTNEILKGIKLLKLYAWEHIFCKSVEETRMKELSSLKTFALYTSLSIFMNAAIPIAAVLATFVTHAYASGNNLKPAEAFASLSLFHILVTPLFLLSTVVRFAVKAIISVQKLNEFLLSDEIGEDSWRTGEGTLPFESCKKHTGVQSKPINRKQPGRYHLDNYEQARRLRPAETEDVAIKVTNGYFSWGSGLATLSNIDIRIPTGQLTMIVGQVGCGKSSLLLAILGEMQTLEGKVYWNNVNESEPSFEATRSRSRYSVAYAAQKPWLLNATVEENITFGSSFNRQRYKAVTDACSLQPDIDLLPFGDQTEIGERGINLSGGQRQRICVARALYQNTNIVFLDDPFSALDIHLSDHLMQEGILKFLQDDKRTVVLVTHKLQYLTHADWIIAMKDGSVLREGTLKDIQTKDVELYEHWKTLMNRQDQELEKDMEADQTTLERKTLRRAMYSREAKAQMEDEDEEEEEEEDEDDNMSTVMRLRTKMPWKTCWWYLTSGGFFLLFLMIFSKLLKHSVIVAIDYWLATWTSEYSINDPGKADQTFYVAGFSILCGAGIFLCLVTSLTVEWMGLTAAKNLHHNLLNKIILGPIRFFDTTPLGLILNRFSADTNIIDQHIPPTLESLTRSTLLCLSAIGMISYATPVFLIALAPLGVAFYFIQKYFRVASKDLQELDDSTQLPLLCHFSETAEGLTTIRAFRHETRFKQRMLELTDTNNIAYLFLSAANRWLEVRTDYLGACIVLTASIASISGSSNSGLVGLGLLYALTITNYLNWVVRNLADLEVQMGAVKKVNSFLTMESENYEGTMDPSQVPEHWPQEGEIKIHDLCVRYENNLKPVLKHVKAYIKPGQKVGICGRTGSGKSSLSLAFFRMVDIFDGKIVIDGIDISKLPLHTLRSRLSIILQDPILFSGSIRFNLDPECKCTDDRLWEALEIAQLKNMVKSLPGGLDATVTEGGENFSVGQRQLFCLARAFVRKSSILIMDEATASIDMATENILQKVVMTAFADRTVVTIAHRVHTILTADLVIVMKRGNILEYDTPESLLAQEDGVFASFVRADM
T1 sequence (Q63664 whole entry partner): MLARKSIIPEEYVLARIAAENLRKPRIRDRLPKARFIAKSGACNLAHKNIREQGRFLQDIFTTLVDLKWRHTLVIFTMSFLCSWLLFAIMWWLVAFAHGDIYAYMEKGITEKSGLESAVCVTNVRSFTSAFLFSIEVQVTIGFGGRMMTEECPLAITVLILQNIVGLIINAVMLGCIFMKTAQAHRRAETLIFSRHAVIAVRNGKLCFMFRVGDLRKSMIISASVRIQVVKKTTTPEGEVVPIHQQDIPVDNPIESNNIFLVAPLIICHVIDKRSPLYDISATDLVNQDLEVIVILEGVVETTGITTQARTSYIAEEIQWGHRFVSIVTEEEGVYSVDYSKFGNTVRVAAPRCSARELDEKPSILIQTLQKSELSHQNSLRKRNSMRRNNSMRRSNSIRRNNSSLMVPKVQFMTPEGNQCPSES
Source text: Biological activity experiment 4. Allosteric regulation of novel compounds on ATP-sensitive potassium channels in vascular smooth muscles.
To study the allosteric regulation of compound 1 on ATP-sensitive potassium channels in vascular smooth muscles, the radio-labled-ligand was used in the biological activity experiment 4.
1. The allosteric regulation of compound 1 on the binding sites for the selective KATP blocker glibenclamide in vascular smooth muscles was studied as follows: After decapitated, the male Wistar rat (340±20 g) was immediately incised open the thoracic cavity. The aorta was dissected and immersed in the 4° C. buffer containing 10 mM HEPES to wash off the blood, then carefully extirpated the fat, peripheral connective tissues and thrombus. The aorta was cut into about 3-5 mm arterial rings and the vascular endothelium was scraped off with wet tampon. The arterial rings were blotted, weighted and transferred into the tubes containing proper amount of ice colded physiological saline buffer. In the association kinetics experiment, the arterial circles in the tubes were incubated with, compound 1(10^−4M), pinacidil(10^−4M), ATP(10^−2M), ADP(10^−3M), Ade(10^−3M), […] and equal volume of buffer respectively for 10 min in 25° C. water bath, and then added [^3H]-glibenclamide(3 nM). At 5,10,15,20,30,60,90 and 120 min after incubation, 9 mL ice colded Tris buffer (50 mM) was added to terminate the reaction. After washing off the free and bound [^3H]-glibenclamide, the aorta was blotted, transferred to a scintillator, added 50 uL 30% H2O2 and reacted for 2 h at 80° C. After cooling, 2.5 mL ethyl glycol and 5 mL 1% B-BPD xylene were added in sequence, kept stationary for 8 h and measured under a scintillometer for cpm value. The resulting data were fit into a regression line with In[BEQ/(BEQ-Bt)]vs.t and the parameters for association kinetics were obtained. In the disassociation kinetics experiments, the aorta treated as described above and [^3H]-glibenclamide were incubated for 60 min at 25° C., and then 30 uM glibenclamide was added. 0,5,15,30,60,90 and 120 min later, the cpm values for the complex of [^3H]-glibenclamide and KATP were measured. The resulting data were fit into a regression line with In(B/BEQ)]vs.t and the parameters for disassociation kinetics were obtained. 2. The allosteric regulation of compound 1 on the binding sites for the selective KATP activator P1075 in vascular smooth muscles was studied with the method as described above, but some conditions should be changed as follows: the incubation temperature was 37° C. instead of 25° C.;P1075 was used instead of glibenclamide; In the association kinetics experiments, the time points for sampling were 5,10,15,20,30,45,60 and 90 min, while in the disassociation kinetics experiments, that were 1,3,5,10,20,30,45 and 60 min. Biological activity experiment 5. The effects of compound 1 on the specific binding of high selective activator [^3H]P1075 with ATP-sensitive potassium channels in vascular smooth muscles.

cordical nerve = test: Cordical nerve apoptosis induced by low level oxygen and glucose; type: cell-based, Wistar rats; conditions: for Apoptosis percentage: low level oxygen and glucose 16 h, flow cytometer, control 2.3 ± 1.2, low oxygen and glucose alone 23.8 ± 7.4, means ± SD
Method: Biological Activity Experiment 9 The Inhibition Effects of Compound 1 on the Cordical Nerve Apoptosis Induced by Low Level Oxygen and Glucose
The methods of biological activity experiment 9 were carried out as follows: The cordical nerve were prepared from 12-hour old Wistar rats and cultured. See G. Y. Yang, A. L. Bentz. Reperfusion-induced injure to the blood-brain after middle cerebral artery occlusion in rats. Stroke, 1994,25:1658-1665. Serum-free DMEM medium was applied 12 days later. The preparation was incubated in low oxygen tank (95% N2+5% CO2) for 8, 16 and 24 h respectively, and then restored oxygen to normal level for another 24 h. The experiments on five groups were as follows: the control group was cultured for 14 days with normal medium; low level oxygen and glucose treated group was cultured with normal medium for 12 days, then with serum-free medium containing low level oxygen and glucose for 16 h and with normal oxygen level for another 24 h; compound 1 treated group was cultured in serum-free medium containing low level oxygen and glucose for 16 h and with normal oxygen level for another 24 h, then added respectively different concentrations of compound 1 (0.1, 1.0 and 10 umol.L^−1). As to the method for detecting apoptosis by the electron microscopy and flow cytometer, refer to C.Du, R.Hu, C. A. Csernansky, et al. Very delayed infarction after mild focal cerebral ischemia: a role for apoptosis. J.Cereb.Flow Metab., 1996,16:195-201; M.Chopp, Y.Li, N.Jiang, et al. Antibodies against adhesion molecules reduced apoptosis after transient middle artery occlusion in rat brain. J.Cereb.Flow Metab., 1996,16:578-584.

With `CC(C)NC(C)(C)C(C)C` [compound 1, N-(1-methylethyl)-2,3-dimethyl-2-butylamine] the “Association kinetics kobs of [^3H]P1075 binding” value [1] was 2.44 ± 0.80 ×10^−2 nM^−1 · min^−1, the Apoptosis percentage (cordical nerve; 0.1 umol · L^−1) was 17.6 ± 5.8% and the Apoptosis percentage (cordical nerve; 1 umol · L^−1) was 13.9 ± 5.2 %. For the same compound, the Apoptosis percentage (cordical nerve; 10 umol · L^−1) was 10.8 ± 4.1 % and the “apoptotic changes of cordical nerve cells under electron microscopy (in words)” value (cordical nerve; 10 umol.L^−1, low level oxygen and glucose) was “the above mentioned changes were hardly observed”.
